Laboratory results reported in ChEMBL document CHEMBL4879554, “Data for DCP probe GNE-2256” (2021).

Columns and labels:
[1] = molecular target: Fibroblast growth factor receptor 3 (Homo sapiens) (UniProt P22607); assay: FGFR3 Kinase panel; conditions: Compound concentration 1.0 uM
[2] = molecular target: Phosphorylase b kinase gamma catalytic chain, skeletal muscle/heart isoform (Homo sapiens) (UniProt Q16816); assay: PhK_gamma1 Kinase panel; conditions: Compound concentration 1.0 uM
[3] = molecular target: Mitogen-activated protein kinase 13 (Homo sapiens) (UniProt O15264); assay: p38_delta Kinase panel; conditions: Compound concentration 1.0 uM
[4] = molecular target: Serine/threonine-protein kinase PAK 1 (Homo sapiens) (UniProt Q13153); assay: PAK1 Kinase panel; conditions: Compound concentration 1.0 uM
[5] = molecular target: Tyrosine-protein kinase Srms (Homo sapiens) (UniProt Q9H3Y6); assay: Srm Kinase panel; conditions: Compound concentration 1.0 uM
[6] = molecular target: Dual specificity protein kinase CLK1 (Homo sapiens) (UniProt P49759); assay: CLK1 Kinase panel; conditions: Compound concentration 1.0 uM
[7] = molecular target: Rho-associated protein kinase 2 (Homo sapiens) (UniProt O75116); assay: ROCK2 Kinase panel; conditions: Compound concentration 1.0 uM
[8] = molecular target: Vascular endothelial growth factor receptor 2 (Homo sapiens) (UniProt P35968); assay: KDR Kinase panel; conditions: Compound concentration 1.0 uM
[9] = molecular target: D(1B) dopamine receptor (Homo sapiens) (UniProt P21918); conditions: Compound concentration 10.0 uM
[10] = molecular target: cAMP-dependent protein kinase catalytic subunit PRKX (Homo sapiens) (UniProt P51817); assay: PrKX Kinase panel; conditions: Compound concentration 1.0 uM
[11] = molecular target: 5-hydroxytryptamine receptor 2B (Homo sapiens, UniProt P41595); assay: GPCRScan assay: inhibition of 5-HT2B; design: radioligand conc. used [nm] 1.0 – 2.0, parental cells stable HEK
[12] = molecular target: Tyrosine-protein kinase Mer (Homo sapiens) (UniProt Q12866); assay: Mer Kinase panel; conditions: Compound concentration 1.0 uM
[13] = molecular target: Cyclin-dependent kinase 7/ cyclin H (Homo sapiens) (UniProt P51946+P50613); assay: CDK7/cyclinH Kinase panel; format: protein-complex assay; conditions: Compound concentration 1.0 uM
[14] = molecular target: cGMP-dependent protein kinase 1 (Homo sapiens) (UniProt Q13976); assay: PKG1_alpha Kinase panel; conditions: Compound concentration 1.0 uM
[15] = molecular target: Ribosomal protein S6 kinase alpha-2 (Homo sapiens) (UniProt Q15349); assay: RSK3 Kinase panel; conditions: Compound concentration 1.0 uM
[16] = molecular target: Serine/threonine-protein kinase Chk1 (Homo sapiens) (UniProt O14757); assay: CHK1 Kinase panel; conditions: Compound concentration 1.0 uM
[17] = molecular target: Interleukin-1 receptor-associated kinase 4 (Homo sapiens) (UniProt Q9NWZ3); assay: IRAK4 Kinase panel; conditions: Compound concentration 1.0 uM
[18] = molecular target: Dual specificity protein kinase TTK (Homo sapiens) (UniProt P33981); assay: TTK Kinase panel; conditions: Compound concentration 1.0 uM
[19] = molecular target: Serine/threonine-protein kinase Sgk3 (Homo sapiens) (UniProt Q96BR1); assay: SGK3 Kinase panel; conditions: Compound concentration 1.0 uM
[20] = molecular target: Tyrosine-protein kinase Lck (Homo sapiens) (UniProt P06239); assay: Lck Kinase panel; conditions: Compound concentration 1.0 uM
[21] = molecular target: SRSF protein kinase 3 (Homo sapiens) (UniProt Q9UPE1); assay: MSSK1 Kinase panel; conditions: Compound concentration 1.0 uM
[22] = molecular target: Tyrosine-protein kinase JAK1 (Homo sapiens, UniProt P23458); assay: NanoBRET assay (JAK1, SGC Frankfurt)
[23] = molecular target: RAC-beta serine/threonine-protein kinase (Homo sapiens) (UniProt P31751); assay: AKT2 Kinase panel; conditions: Compound concentration 1.0 uM
[24] = molecular target: Inhibitor of nuclear factor kappa-B kinase subunit epsilon (Homo sapiens) (UniProt Q14164); assay: IKK_epsilon Kinase panel; conditions: Compound concentration 1.0 uM
[25] = molecular target: Mitogen-activated protein kinase 10 (Homo sapiens) (UniProt P53779); assay: JNK3 Kinase panel; conditions: Compound concentration 1.0 uM
[26] = molecular target: D(4) dopamine receptor (Homo sapiens) (UniProt P21917); conditions: Compound concentration 10.0 uM
[27] = molecular target: Calcium/calmodulin-dependent protein kinase type IV (Homo sapiens) (UniProt Q16566); assay: CamKIV Kinase panel; conditions: Compound concentration 1.0 uM
[28] = molecular target: Mitogen-activated protein kinase 14 (Homo sapiens) (UniProt Q16539); assay: p38_alpha(direct) Kinase panel; conditions: Compound concentration 1.0 uM
Rattus norvegicus = species: Rattus norvegicus; conditions: Compound concentration 10.0 uM
[29] = molecular target: Mitogen-activated protein kinase 9 (Homo sapiens) (UniProt P45984); assay: JNK2 Kinase panel; conditions: Compound concentration 1.0 uM
[30] = molecular target: Mitogen-activated protein kinase kinase kinase 8 (Homo sapiens) (UniProt P41279); assay: Cot Kinase panel; conditions: Compound concentration 1.0 uM
[31] = molecular target: Aurora kinase A (Homo sapiens) (UniProt O14965); assay: Aurora_A Kinase panel; conditions: Compound concentration 1.0 uM
[32] = molecular target: Focal adhesion kinase 1 (Homo sapiens) (UniProt Q05397); assay: FAK Kinase panel; conditions: Compound concentration 1.0 uM
[33] = molecular target: Casein kinase I isoform gamma-1 (Homo sapiens) (UniProt Q9HCP0); assay: CK1_gamma1 Kinase panel; conditions: Compound concentration 1.0 uM
[34] = molecular target: Sodium-dependent dopamine transporter (Homo sapiens) (UniProt Q01959); conditions: Compound concentration 10.0 uM
Homo sapiens = species: Homo sapiens; assay: PKA Kinase panel; conditions: Compound concentration 1.0 uM
[35] = molecular target: Testis-specific serine/threonine-protein kinase 1 (Homo sapiens) (UniProt Q9BXA7); assay: TSSK1 Kinase panel; conditions: Compound concentration 1.0 uM
[36] = molecular target: Tyrosine-protein kinase BTK (Homo sapiens) (UniProt Q06187); assay: BTK Kinase panel; conditions: Compound concentration 1.0 uM
[37] = molecular target: Tyrosine-protein kinase receptor TYRO3 (Homo sapiens) (UniProt Q06418); assay: Rse Kinase panel; conditions: Compound concentration 1.0 uM
[38] = molecular target: Muscarinic acetylcholine receptor M5 (Homo sapiens) (UniProt P08912); conditions: Compound concentration 10.0 uM
[39] = molecular target: Serine/threonine-protein kinase N1 (Homo sapiens) (UniProt Q16512); assay: PRK1 Kinase panel; conditions: Compound concentration 1.0 uM
[40] = molecular target: Vascular endothelial growth factor receptor 1 (Homo sapiens) (UniProt P17948); assay: Flt1 Kinase panel; conditions: Compound concentration 1.0 uM
[41] = molecular target: Serine/threonine-protein kinase MARK1 (Homo sapiens) (UniProt Q9P0L2); assay: MARK1 Kinase panel; conditions: Compound concentration 1.0 uM
[42] = molecular target: Epidermal growth factor receptor (Homo sapiens) (UniProt P00533); assay: EGFR Kinase panel; conditions: Compound concentration 1.0 uM
[43] = molecular target: Mitogen-activated protein kinase 12 (Homo sapiens) (UniProt P53778); assay: p38_gamma Kinase panel; conditions: Compound concentration 1.0 uM
[44] = molecular target: Serine/threonine-protein kinase PLK1 (Homo sapiens) (UniProt P53350); assay: PLK1 Kinase panel; conditions: Compound concentration 1.0 uM
[45] = molecular target: Serine/threonine-protein kinase 17A (Homo sapiens) (UniProt Q9UEE5); assay: DRAK1 Kinase panel; conditions: Compound concentration 1.0 uM
[46] = molecular target: Non-receptor tyrosine-protein kinase TYK2 (Homo sapiens) (UniProt P29597); assay: TYK2 Kinase panel; conditions: Compound concentration 1.0 uM
[47] = molecular target: Vascular endothelial growth factor receptor 3 (Homo sapiens) (UniProt P35916); assay: Flt4 Kinase panel; conditions: Compound concentration 1.0 uM
[48] = molecular target: Sigma intracellular receptor 2 (Homo sapiens) (UniProt Q5BJF2); conditions: Compound concentration 10.0 uM
[49] = molecular target: Fibroblast growth factor receptor 1 (Homo sapiens) (UniProt P11362); assay: FGFR1 Kinase panel; conditions: Compound concentration 1.0 uM
[50] = molecular target: 5'-AMP-activated protein kinase catalytic subunit alpha-1 (Homo sapiens) (UniProt Q13131); assay: PRKAA1 Kinase panel; conditions: Compound concentration 1.0 uM
[51] = molecular target: Tyrosine-protein kinase Blk (Homo sapiens) (UniProt P51451); assay: Blk Kinase panel; conditions: Compound concentration 1.0 uM
[52] = molecular target: MAP kinase-interacting serine/threonine-protein kinase 2 (Homo sapiens) (UniProt Q9HBH9); assay: MKNK2 Kinase panel; conditions: Compound concentration 1.0 uM
[53] = molecular target: Mitogen-activated protein kinase kinase kinase kinase 4 (Homo sapiens, UniProt O95819); assay: MAP4K4 Kinase panel

Sequence of Sodium-dependent dopamine transporter (Homo sapiens) (Q01959 whole entry): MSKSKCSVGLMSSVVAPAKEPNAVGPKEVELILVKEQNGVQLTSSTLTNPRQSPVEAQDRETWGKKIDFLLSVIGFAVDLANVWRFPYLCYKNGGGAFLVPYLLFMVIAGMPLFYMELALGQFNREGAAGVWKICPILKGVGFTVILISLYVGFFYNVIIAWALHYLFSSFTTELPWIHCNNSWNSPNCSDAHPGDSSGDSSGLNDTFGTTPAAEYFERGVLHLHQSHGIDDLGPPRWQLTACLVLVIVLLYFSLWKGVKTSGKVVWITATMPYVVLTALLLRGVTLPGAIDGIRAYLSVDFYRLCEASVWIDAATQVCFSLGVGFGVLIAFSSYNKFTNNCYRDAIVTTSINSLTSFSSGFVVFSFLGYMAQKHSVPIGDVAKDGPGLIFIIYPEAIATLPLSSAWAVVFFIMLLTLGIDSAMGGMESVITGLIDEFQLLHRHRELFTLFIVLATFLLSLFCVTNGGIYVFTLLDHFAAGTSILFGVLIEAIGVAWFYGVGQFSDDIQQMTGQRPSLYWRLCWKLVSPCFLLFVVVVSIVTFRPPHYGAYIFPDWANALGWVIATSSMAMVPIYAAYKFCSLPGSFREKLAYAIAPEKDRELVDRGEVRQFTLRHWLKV
Sequence of Mitogen-activated protein kinase 13 (Homo sapiens) (O15264 whole entry): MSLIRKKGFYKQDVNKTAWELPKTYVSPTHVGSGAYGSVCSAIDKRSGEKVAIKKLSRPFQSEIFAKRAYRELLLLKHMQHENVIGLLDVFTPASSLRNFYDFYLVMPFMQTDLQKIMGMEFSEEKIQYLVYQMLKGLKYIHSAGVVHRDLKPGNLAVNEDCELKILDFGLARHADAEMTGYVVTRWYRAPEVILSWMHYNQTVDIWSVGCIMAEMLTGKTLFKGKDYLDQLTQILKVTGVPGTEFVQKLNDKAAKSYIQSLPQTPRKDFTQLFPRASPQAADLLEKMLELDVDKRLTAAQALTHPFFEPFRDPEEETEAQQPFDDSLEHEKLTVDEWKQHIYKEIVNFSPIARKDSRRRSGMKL
Sequence of cAMP-dependent protein kinase catalytic subunit PRKX (Homo sapiens) (P51817 whole entry): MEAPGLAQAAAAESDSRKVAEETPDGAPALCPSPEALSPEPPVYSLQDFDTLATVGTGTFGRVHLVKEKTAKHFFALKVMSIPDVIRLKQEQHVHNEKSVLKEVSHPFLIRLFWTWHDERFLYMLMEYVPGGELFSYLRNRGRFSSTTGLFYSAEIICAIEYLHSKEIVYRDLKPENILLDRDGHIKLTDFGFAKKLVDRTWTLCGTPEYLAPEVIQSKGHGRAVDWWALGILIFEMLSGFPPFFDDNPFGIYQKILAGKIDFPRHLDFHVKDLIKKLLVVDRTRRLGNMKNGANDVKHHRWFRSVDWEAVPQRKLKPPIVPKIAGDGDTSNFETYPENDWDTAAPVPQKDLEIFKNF
Sequence of Testis-specific serine/threonine-protein kinase 1 (Homo sapiens) (Q9BXA7 whole entry): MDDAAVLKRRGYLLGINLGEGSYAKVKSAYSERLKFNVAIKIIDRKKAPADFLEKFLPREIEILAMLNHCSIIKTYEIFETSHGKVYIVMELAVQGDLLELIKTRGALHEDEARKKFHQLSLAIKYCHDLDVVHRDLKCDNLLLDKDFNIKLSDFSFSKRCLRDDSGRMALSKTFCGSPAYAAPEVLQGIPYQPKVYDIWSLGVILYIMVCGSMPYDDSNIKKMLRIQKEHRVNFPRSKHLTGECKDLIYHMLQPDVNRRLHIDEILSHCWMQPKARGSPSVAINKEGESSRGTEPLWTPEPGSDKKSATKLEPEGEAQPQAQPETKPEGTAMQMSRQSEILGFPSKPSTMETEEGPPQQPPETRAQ
Sequence of Dual specificity protein kinase TTK (Homo sapiens) (P33981 whole entry): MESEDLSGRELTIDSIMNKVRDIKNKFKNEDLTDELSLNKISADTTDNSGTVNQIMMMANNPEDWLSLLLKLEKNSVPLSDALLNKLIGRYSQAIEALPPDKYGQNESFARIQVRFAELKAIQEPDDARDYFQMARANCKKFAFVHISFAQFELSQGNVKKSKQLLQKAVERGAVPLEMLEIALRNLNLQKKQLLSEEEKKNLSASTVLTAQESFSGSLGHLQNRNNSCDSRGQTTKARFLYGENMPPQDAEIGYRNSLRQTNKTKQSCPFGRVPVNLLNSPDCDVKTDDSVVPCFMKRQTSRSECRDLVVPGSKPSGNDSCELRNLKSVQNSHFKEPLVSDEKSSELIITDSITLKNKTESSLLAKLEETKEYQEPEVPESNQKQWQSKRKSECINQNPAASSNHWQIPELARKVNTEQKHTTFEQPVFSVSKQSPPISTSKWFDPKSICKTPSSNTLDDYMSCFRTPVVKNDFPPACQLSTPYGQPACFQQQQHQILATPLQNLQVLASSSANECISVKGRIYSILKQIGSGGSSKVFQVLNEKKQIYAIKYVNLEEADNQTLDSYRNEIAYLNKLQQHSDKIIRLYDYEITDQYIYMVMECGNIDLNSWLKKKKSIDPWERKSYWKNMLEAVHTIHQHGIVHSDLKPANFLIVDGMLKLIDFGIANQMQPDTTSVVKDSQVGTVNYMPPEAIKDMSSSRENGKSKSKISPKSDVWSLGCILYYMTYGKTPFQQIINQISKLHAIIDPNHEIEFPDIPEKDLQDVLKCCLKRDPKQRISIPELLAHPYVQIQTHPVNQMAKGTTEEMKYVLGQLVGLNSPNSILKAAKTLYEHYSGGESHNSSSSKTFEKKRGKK
Sequence of Serine/threonine-protein kinase Chk1 (Homo sapiens) (O14757 whole entry): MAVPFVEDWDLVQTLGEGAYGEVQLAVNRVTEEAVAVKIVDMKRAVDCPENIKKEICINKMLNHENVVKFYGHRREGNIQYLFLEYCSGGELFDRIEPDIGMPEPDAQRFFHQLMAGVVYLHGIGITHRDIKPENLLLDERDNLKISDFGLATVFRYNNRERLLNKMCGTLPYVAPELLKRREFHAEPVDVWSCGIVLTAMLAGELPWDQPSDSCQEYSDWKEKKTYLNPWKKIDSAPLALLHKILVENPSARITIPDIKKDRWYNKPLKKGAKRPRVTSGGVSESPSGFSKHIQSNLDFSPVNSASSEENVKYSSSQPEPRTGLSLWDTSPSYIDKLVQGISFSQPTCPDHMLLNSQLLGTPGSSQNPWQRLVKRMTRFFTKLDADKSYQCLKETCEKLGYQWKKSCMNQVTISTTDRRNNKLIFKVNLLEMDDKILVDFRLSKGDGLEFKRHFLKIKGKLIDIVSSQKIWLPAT
Sequence of Serine/threonine-protein kinase 17A (Homo sapiens) (Q9UEE5 whole entry): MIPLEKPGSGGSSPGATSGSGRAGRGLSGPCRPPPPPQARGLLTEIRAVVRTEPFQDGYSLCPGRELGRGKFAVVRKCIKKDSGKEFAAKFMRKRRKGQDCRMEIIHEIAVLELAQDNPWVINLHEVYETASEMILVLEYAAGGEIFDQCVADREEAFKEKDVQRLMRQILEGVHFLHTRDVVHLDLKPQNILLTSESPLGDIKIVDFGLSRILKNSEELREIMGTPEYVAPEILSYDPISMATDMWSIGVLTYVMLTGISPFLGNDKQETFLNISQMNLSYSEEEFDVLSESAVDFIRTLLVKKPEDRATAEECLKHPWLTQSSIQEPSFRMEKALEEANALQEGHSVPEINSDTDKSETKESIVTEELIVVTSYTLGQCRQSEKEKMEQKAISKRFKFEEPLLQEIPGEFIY
Sequence of Muscarinic acetylcholine receptor M5 (Homo sapiens) (P08912 whole entry): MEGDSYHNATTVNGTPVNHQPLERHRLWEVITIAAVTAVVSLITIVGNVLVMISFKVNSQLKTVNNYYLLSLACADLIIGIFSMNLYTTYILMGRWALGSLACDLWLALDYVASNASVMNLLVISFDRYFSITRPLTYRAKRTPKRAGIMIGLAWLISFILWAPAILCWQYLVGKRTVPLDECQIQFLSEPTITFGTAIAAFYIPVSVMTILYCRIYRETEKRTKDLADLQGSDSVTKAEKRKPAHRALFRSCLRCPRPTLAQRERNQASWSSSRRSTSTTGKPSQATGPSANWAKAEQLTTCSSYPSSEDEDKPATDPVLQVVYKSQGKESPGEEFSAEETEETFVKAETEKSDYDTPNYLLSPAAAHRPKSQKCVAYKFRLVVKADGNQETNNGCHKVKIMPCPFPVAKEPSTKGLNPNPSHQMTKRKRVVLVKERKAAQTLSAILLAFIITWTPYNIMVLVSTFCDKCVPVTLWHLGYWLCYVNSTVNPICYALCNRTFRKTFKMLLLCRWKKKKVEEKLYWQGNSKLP
Sequence of Tyrosine-protein kinase BTK (Homo sapiens) (Q06187 whole entry): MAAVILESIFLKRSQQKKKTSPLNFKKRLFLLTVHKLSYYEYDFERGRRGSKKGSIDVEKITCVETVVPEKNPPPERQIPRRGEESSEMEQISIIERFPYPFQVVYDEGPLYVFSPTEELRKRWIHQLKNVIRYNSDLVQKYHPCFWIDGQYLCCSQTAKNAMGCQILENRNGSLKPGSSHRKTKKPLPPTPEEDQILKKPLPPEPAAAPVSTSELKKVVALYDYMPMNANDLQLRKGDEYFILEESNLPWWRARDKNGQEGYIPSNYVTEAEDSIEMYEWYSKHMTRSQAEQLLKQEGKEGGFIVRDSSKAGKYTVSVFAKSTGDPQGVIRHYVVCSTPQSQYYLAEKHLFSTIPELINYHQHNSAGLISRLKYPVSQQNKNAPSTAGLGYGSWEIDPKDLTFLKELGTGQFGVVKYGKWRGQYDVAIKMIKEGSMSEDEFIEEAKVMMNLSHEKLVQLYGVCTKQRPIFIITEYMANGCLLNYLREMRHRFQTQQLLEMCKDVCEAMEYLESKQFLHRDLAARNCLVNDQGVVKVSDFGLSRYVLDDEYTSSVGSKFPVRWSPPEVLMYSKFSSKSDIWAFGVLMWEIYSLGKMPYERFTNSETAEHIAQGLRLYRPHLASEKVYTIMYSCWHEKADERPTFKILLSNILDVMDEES
Sequence of Sigma intracellular receptor 2 (Homo sapiens) (Q5BJF2 whole entry): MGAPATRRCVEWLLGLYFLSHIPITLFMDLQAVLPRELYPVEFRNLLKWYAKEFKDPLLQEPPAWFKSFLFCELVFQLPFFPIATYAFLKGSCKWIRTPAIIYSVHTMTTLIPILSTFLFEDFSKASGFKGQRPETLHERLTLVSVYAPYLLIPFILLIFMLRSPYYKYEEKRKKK

CC(C)(O)[C@H](F)CN1Cc2cc(NC(=O)c3cnn4cccnc34)c(N3CCOCC3)cc2C1=O
inhibition [1]: 1.5%
inhibition [2]: 18.5%
inhibition [3]: 5.5%
inhibition [4]: 9%
inhibition [5]: 16%
inhibition [6]: 7.5%
inhibition [7]: 6%
inhibition [8]: 17%
inhibition [9]: -6.56%
inhibition [10]: -2.5%
Ki [11]: 509 nM
inhibition [12]: 28%
inhibition [13]: 4%
inhibition [14]: 1%
inhibition [15]: 9%
inhibition [16]: 3%
inhibition [17]: 101%
inhibition [18]: 13%
inhibition [19]: -0.5%
inhibition [20]: 41.3%
inhibition [21]: 2.5%
EC50 [22]: > 50000 nM (not active)
inhibition [23]: 7.5%
inhibition [24]: -0.5%
inhibition [25]: 10.5%
inhibition [26]: -9.22%
inhibition [27]: -6%
inhibition [28]: 4%
inhibition (Rattus norvegicus): -2.15%
inhibition [29]: 2.5%
inhibition [30]: 3%
inhibition [31]: 20.5%
inhibition [32]: 19.5%
inhibition [33]: -3.5%
inhibition [34]: 20%
inhibition (Homo sapiens): 5%
inhibition [35]: 5%
inhibition [36]: 42%
inhibition [37]: 18%
inhibition [38]: -6.7%
inhibition [39]: 0.5%
inhibition [40]: -1%
inhibition [41]: -1%
inhibition [42]: 6.8%
inhibition [43]: 0.5%
inhibition [44]: -2%
inhibition [45]: 11.5%
inhibition [46]: 53.5%
inhibition [47]: 13%
inhibition [48]: -0.93%
inhibition [49]: 5.5%
inhibition [50]: 5.5%
inhibition [51]: 37.5%
inhibition [52]: 6.5%
IC50 [53]: 680 nM
inhibition ([53]; Compound concentration 1.0 uM): 86.3%
